In patent US5635593A (priority 1995, dated 1997):
Square brackets hold non-standard residues; d marks the D form. Peptide text beside a SMILES is read from it. Oic = O=C(O)[C@@H]1C[C@@H]2CCCC[C@@H]2N1; Hyp = O=C(O)[C@@H]1C[C@@H](O)CN1; dTic = O=C(O)[C@H]1Cc2ccccc2CN1; 2Thi = N[C@@H](Cc1cccs1)C(=O)O

How the values were obtained:
[1] = biological target: T1, BK1 receptor (Oryctolagus cuniculus, UniProt P48748); assay: blood pressure response to BK1 agonist in LPS-pretreated rabbits; type: in vivo, rabbit; set-up: from tissue; host or cells: whole animal (rabbit, LPS-pretreated), blood pressure response; key to observed antagonist activity BK1, 1 / observed antagonist activity BK1, 3 / observed antagonist activity BK1, 10: +: complete blockade of the blood pressure response to the appropriate agonist; ±: partial blockade; -: no observable effect at the dose indicated; conditions: rabbits given LPS (10 μg) 20 hours before; for observed antagonist activity BK1, 1: 1 μg kg^-1 min^-1; for observed antagonist activity BK1, 3: 3 μg kg^-1 min^-1; for observed antagonist activity BK1, 10: 10 μg kg^-1 min^-1
T1 sequence (P48748 1-352): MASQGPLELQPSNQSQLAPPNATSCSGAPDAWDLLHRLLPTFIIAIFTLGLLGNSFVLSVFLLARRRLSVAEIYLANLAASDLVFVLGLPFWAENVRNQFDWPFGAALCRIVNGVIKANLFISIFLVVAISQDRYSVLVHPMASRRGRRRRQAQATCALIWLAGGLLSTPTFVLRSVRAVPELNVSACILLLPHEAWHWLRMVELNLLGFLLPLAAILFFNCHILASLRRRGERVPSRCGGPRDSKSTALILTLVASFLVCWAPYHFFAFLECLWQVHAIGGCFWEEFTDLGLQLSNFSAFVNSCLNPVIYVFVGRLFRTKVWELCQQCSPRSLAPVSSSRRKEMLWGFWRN
Excerpt: (§1) That heterodimeric constructs block the activities attributable to two different receptor populations simultaneously when administered to an intact animal has been known using a standard assay of BK2 and BK1 receptor activity (see, deBlois, Bouthillier, and Marceau, Brit. J. Pharm., 103, 1057-1066, 1991). In normal rabbits, no changes in systemic arterial blood pressure can be detected in response to challenges with BK1 receptor agonists. There is, however, a predictable and reproducible response to BK2 agonists constituatively present. After stimulation with LPS BK1 receptor activity will develop over time such that profound responses to doses of BK1 agonists that were previously inconsequential in nature are observed after a 3-4 hour period. Responses to BK2 agonists are unchanged in these animals. At this point, one can test directly the ability to block both BK1 and BK2 mediated reductions in systemic blood pressure simultaneously with a heterodimeric antagonist.
(§2) FIGS. 8a, b and c comprise actual blood pressure traces from a series of experiments designed to illustrate the ability of a representative heterodimer (CP-0364) to block both BK1 - and BK2 - mediated hypotensive responses simultaneously.
(§3) The expected antagonist activity is based on the data summarized in Tables K and L. The in vivo experimental data reported are qualitative measurements of antagonist activity at three different doses (1, 3 and 10 μg kg^-1 min^-1) in rabbits given a sub-lethal dose of LPS (10 μg), 20 hours before initiation of the experiment.

[2] = biological target: T2, BK2 receptor (Oryctolagus cuniculus, UniProt Q28642); assay: blood pressure response to BK2 agonist in LPS-pretreated rabbits; type: in vivo, rabbit; set-up: key to observed antagonist activity BK2, 1 / observed antagonist activity BK2, 3 / observed antagonist activity BK2, 10: +: complete blockade of the blood pressure response to the appropriate agonist; ±: partial blockade; -: no observable effect at the dose indicated; conditions: rabbits given LPS (10 μg) 20 hours before; for observed antagonist activity BK2, 1: 1 μg kg^-1 min^-1; for observed antagonist activity BK2, 10: 10 μg kg^-1 min^-1; for observed antagonist activity BK2, 3: 3 μg kg^-1 min^-1
T2 construct: from tissue; host or cells: whole animal (rabbit, LPS-pretreated), blood pressure response
T2 sequence (Q28642 1-367): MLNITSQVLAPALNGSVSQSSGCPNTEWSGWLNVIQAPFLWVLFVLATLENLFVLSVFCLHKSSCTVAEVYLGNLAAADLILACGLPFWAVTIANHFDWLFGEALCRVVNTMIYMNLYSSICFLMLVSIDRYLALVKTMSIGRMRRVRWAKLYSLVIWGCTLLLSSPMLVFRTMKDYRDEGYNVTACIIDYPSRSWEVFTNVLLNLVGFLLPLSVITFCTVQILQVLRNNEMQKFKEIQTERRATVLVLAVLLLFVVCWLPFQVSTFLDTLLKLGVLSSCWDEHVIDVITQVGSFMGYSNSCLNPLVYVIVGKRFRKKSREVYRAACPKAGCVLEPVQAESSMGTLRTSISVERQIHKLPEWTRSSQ
Excerpt: as §1, §2, §3

[3] = biological target: T3, BK2 -receptor (Rattus norvegicus, UniProt P25023); assay: rat uterus (RU) in vitro, antagonism of BK; conditions: against BK
T3 construct: guinea-pig ileum (GPI), rat uterus (RU) and rabbit jugular vein (RJV); from tissue; host or cells: rat uterus
T3 sequence (P25023 1-396): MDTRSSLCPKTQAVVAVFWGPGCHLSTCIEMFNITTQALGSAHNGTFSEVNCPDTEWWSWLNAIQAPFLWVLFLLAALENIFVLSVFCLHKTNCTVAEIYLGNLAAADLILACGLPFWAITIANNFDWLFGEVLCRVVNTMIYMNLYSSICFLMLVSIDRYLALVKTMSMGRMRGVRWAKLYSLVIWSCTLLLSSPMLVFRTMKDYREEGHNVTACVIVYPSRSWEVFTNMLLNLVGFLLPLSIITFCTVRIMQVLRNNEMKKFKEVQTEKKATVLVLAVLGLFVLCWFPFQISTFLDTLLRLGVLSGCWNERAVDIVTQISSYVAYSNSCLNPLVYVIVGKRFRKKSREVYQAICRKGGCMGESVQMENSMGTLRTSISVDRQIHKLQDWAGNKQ
Method: Thus, in vitro studies were performed on standard assay systems, namely, guinea-pig ileum (GPI), rat uterus (RU) and rabbit jugular vein (RJV). […] The potency of each compound was assessed as a pA2 value according to the method of Arunlakshana & Schild, Br. J. Pharmacol. Chemother., 14:48-58 (1959). The pA2 can be defined as the negative logarithm of the molar concentration of the antagonist in the presence of which the potency of the agonist is reduced two-fold, i.e., twice the amount of agonist is required to produce a given response in the presence of, than in the absence of, the antagonist. A high potency of antagonism is indicated by a high pA2 value. i.e., a low concentration of antagonist is effective.
The percentage recovery (% Rec) was also determined for compounds with respect to each assay.
With respect to duration of activity, it is noted that after exposure to the highest concentration of antagonist, each tissue was washed extensively and then assessed for recovery from the antagonist effect.
Potency in the rat uterus assay was assessed as described above and pA2 values determined.

[4] = biological target: T1, BK1 receptor; assay: rabbit aorta in vitro, reversal of des-Arg^9 -BK contraction; set-up: on rabbit aorta (BK1 -receptor) in vitro; from tissue; host or cells: rabbit aorta; conditions: negative log of molar concentration causing 50% reversal of des-Arg^9 -BK (10^-7 M) contraction
Method: Each antagonist was then added, in a cumulative fashion, on top of the contraction and the negative log of the molar concentration of the antagonist causing a 50% reversal (IC50) of the […] measured.

N=C(N)NCCC[C@@H](N)C(=O)N[C@@H](CCCNC(=N)N)C(=O)N1CCC[C@H]1C(=O)N1C[C@H](O)C[C@H]1C(=O)NCC(=O)N[C@@H](Cc1cccs1)C(=O)N[C@@H](CO)C(=O)N1Cc2ccccc2C[C@@H]1C(=O)N1[C@H](C(=O)O)C[C@@H]2CCCC[C@@H]21 [CP-0345, D R--R--P--J--G--Thi--S--D Tic--Oic] (H-[dR]RP[Hyp]G[2Thi]S[dTic][Oic]-OH; N-terminus and C-terminus assumed)
observed antagonist activity BK1, 1 [1]: - | observed antagonist activity BK1, 3 [1]: + | observed antagonist activity BK1, 10 [1]: + | observed antagonist activity BK2, 1 [2]: - | observed antagonist activity BK2, 10 [2]: + | pA2 rat uterus (BK2) [3]: 7.6 ± 0.4 | BK1 rabbit aorta IC50 [4]: 7.1 ± 0.1

CC(C)C[C@H](NC(=O)[C@@H]1CCCN1C(=O)[C@H](CO)NC(=O)[C@H](Cc1ccccc1)NC(=O)CNC(=O)[C@@H]1C[C@@H](O)CN1C(=O)[C@@H]1CCCN1C(=O)[C@H](CCCCNC(=O)CCCCCN1C(=O)CC(SC[C@H](NC(=O)[C@H](Cc2ccccc2)NC(=O)CNC(=O)[C@@H]2C[C@@H](O)CN2C(=O)[C@@H]2CCCN2C(=O)[C@H](CCCNC(=N)N)NC(=O)[C@H](N)CCCNC(=N)N)C(=O)N[C@H](Cc2ccccc2)C(=O)N[C@@H](CC(C)C)C(=O)N[C@@H](CCCNC(=N)N)C(=O)O)C1=O)NC(=O)[C@H](N)CCCNC(=N)N)C(=O)O (some centres unmarked) [CP-0389] (HELM PEPTIDE1{[dR].R.P.[Hyp].G.F.C.[dF].L.R}|PEPTIDE2{[dR].K.P.[Hyp].G.F.S.P.L}|CHEM1{[O=C1CC([*:1])C(=O)N1CCCCCC(=O)[*:2]]}$PEPTIDE1,CHEM1,7:R3-1:R1|PEPTIDE2,CHEM1,2:R3-1:R2$$$V2.0; N-terminus and C-terminus assumed; bridges inferred)
pA2 rat uterus (BK2) [3]: 7.4 ± 0.1 | BK1 rabbit aorta IC50 [4]: 6.5 ± 0.1

CC(C)C[C@H](NC(=O)[C@@H](Cc1ccccc1)NC(=O)[C@H](CO)NC(=O)[C@H](Cc1ccccc1)NC(=O)CNC(=O)[C@@H]1C[C@@H](O)CN1C(=O)[C@@H]1CCCN1C(=O)[C@H](CSC1CC(=O)N(CCCCCCN2C(=O)CC(SC[C@H](NC(=O)[C@H](Cc3ccccc3)NC(=O)CNC(=O)[C@@H]3C[C@@H](O)CN3C(=O)[C@@H]3CCCN3C(=O)[C@H](CCCNC(=N)N)NC(=O)[C@H](N)CCCNC(=N)N)C(=O)N[C@H](Cc3ccccc3)C(=O)N[C@@H](CC(C)C)C(=O)N[C@@H](CCCNC(=N)N)C(=O)O)C2=O)C1=O)NC(=O)[C@H](N)CCCNC(=N)N)C(=O)O (some centres unmarked) [CP-0386] (HELM PEPTIDE1{[dR].R.P.[Hyp].G.F.C.[dF].L.R}|PEPTIDE2{[dR].C.P.[Hyp].G.F.S.[dF].L}|CHEM1{[O=C1CC([*:1])C(=O)N1CCCCCCN1C(=O)CC([*:2])C1=O]}$PEPTIDE1,CHEM1,7:R3-1:R1|PEPTIDE2,CHEM1,2:R3-1:R2$$$V2.0; N-terminus and C-terminus assumed)
observed antagonist activity BK1, 1 [1]: + | observed antagonist activity BK1, 3 [1]: + | observed antagonist activity BK1, 10 [1]: + | observed antagonist activity BK2, 1 [2]: + | observed antagonist activity BK2, 3 [2]: + | observed antagonist activity BK2, 10 [2]: + | pA2 rat uterus (BK2) [3]: 7.6 ± 0.1 | BK1 rabbit aorta IC50 [4]: 7.1 ± 0.2

N=C(N)NCCC[C@@H](N)C(=O)N[C@@H](CCCNC(=N)N)C(=O)N1CCC[C@H]1C(=O)N1C[C@H](O)C[C@H]1C(=O)NCC(=O)N[C@@H](Cc1ccccc1)C(=O)N[C@@H](CO)C(=O)N1Cc2ccccc2C[C@@H]1C(=O)N1[C@H](C(=O)O)C[C@@H]2CCCC[C@@H]21 [CP-0267, D R--R--P--J--G--F--S--D Tic--Oic] (HELM PEPTIDE1{[dR].R.P.[Hyp].G.F.S.[O=C([C@H]1Cc2ccccc2CN1[*:1])[*:2]].[O=C(O)[C@@H]1C[C@@H]2CCCC[C@@H]2N1[*:1]]}$$$$V2.0; N-terminus and C-terminus assumed)
observed antagonist activity BK1, 1 [1]: - | observed antagonist activity BK1, 3 [1]: - | observed antagonist activity BK1, 10 [1]: + | observed antagonist activity BK2, 1 [2]: - | observed antagonist activity BK2, 3 [2]: - | pA2 rat uterus (BK2) [3]: 5.7 ± 0.1 | BK1 rabbit aorta IC50 [4]: 7.5 ± 0.2

CC(C)C[C@H](NC(=O)[C@@H](Cc1ccccc1)NC(=O)[C@H](CSC1CC(=O)N(CCCCCCN2C(=O)CC(SC[C@H](NC(=O)[C@H](Cc3ccccc3)NC(=O)CNC(=O)[C@@H]3C[C@@H](O)CN3C(=O)[C@@H]3CCCN3C(=O)[C@H](CCCNC(=N)N)NC(=O)[C@H](N)CCCNC(=N)N)C(=O)N[C@H](Cc3ccccc3)C(=O)N[C@@H](CC(C)C)C(=O)N[C@@H](CCCNC(=N)N)C(=O)O)C2=O)C1=O)NC(=O)[C@H](Cc1ccccc1)NC(=O)CNC(=O)[C@@H]1C[C@@H](O)CN1C(=O)[C@@H]1CCCN1C(=O)[C@H](CCCNC(=N)N)NC(=O)[C@H](N)CCCNC(=N)N)C(=O)O (some centres unmarked) [CP-0273] (HELM PEPTIDE1{[dR].R.P.[Hyp].G.F.C.[dF].L.R}|PEPTIDE2{[dR].R.P.[Hyp].G.F.C.[dF].L}|CHEM1{[O=C1CC([*:1])C(=O)N1CCCCCCN1C(=O)CC([*:2])C1=O]}$PEPTIDE1,CHEM1,7:R3-1:R1|PEPTIDE2,CHEM1,7:R3-1:R2$$$V2.0; N-terminus and C-terminus assumed)
Kb ([3]; read-out: pA2 rat uterus (BK2) (converted)): 6.31 nM | IC50 [4]: 2000 nM
